Measurements published in patent publication US20260256814A1, “COMBINATION FOR THE TREATMENT OF INFECTIONS CAUSED BY MYCOPLASMA GENITALIUM” (GLAXOSMITHKLINE INTELLECTUAL PROPERTY DEVELOPMENT LIMITED, priority 2019, published 2026).
Converted amounts (≈) assume the structure as drawn. Like-named read-outs stand apart in the source and are kept apart here.

Columns and labels:
Mycoplasma genitalium [1] = test: Determination of minimum inhibitory concentration (MIC) by the Vero-cell culture method, growth by qPCR; assay type: cell-based
Description: A collection of 54 Mycoplasma genitalium isolates originating from 51 patients were tested. Thirty-one strains were macrolide-resistant, with azithromycin MICs of ≥16 μg/mL and mutations in 23S rRNA gene positions A2058 (n=17) or A2059 (n=14, E. coli numbering). Eighteen strains were moxifloxacin-resistant (MIC≥1 μg/ml); 17 had dual resistance and were resistant to both moxifloxacin and azithromycin.
Gepotidacin minimal inhibitory concentrations (MICs) were determined by the Vero-cell culture method for all 54 isolates and minimal bactericidal concentrations (MBCs) against 44 Mycoplasma genitalium strains. Gepotidacin, azithromycin, doxycycline, and moxifloxacin MICs were determined by inoculating 5000 genome equivalents (geq) as determined by quantitative PCR (qPCR) into a Vero-cell culture containing two-fold dilutions of test-antibiotic (Hamasuna et al., Antimicrob. Agents Chemother 49, 4993-4998 (2005)). After a three-week incubation period, cells and supernatant were harvested and growth of Mycoplasma genitalium was determined by qPCR. MIC was defined as the minimal concentration of the test-antibiotic causing a 99% inhibition of growth when compared to the mean of the control cultures grown without antibiotic.

Mycoplasma genitalium [2] = test: Determination of minimum bactericidal concentration (MBC), Vero-cell culture, qPCR; assay type: cell-based; conditions: Mycoplasmoides genitalium, read-out: median MBC
Description: After incubation for MIC determination, 15 μl of culture medium was transferred from the MIC plate to 135 μl fresh Vero-cell suspension, resulting in a 10-fold dilution of gepotidacin. Plates were sealed and incubated for four weeks and Mycoplasma genitalium growth was subsequently determined by qPCR. MBC was defined as the minimal concentration of the test-antibiotic causing a 99% inhibition of growth when compared to the mean of the control culture wells grown without antibiotic.

Mycoplasma genitalium [3] = conditions: alternative treatment of Mycoplasma genitalium infection; cited from earlier work
[4] = Mycoplasmoides genitalium, all 54 isolates (36 moxifloxacin-susceptible and 18 moxifloxacin-resistant), Vero-cell culture, 99% inhibition of growth, read-out: MIC50
[5] = Mycoplasmoides genitalium, all 54 isolates, Vero-cell culture, read-out: MIC90
[6] = all 54 isolates, Vero-cell culture
[7] = 18 moxifloxacin-resistant isolates
[8] = 36 moxifloxacin-susceptible isolates

CC[C@H]1OC(=O)[C@H](C)[C@@H](O[C@H]2C[C@@](C)(OC)[C@@H](O)[C@H](C)O2)[C@H](C)[C@@H](O[C@@H]2O[C@H](C)C[C@H](N(C)C)[C@H]2O)[C@](C)(O)C[C@@H](C)CN(C)[C@H](C)[C@@H](O)[C@]1(C)O [Azithromycin, reference compound]
MIC (Mycoplasma genitalium [1]; Mycoplasmoides genitalium, read-out: MICs, 31 macrolide-resistant strains (23S rRNA A2058 or A2059 mutations)): ≥ 16 µg/mL
MIC50 (Mycoplasma genitalium [1]; [4]): 16 µg/mL (≈ 21.4 µM)
MIC90 (Mycoplasma genitalium [1]; [5]): > 64 µg/mL
MIC90 (Mycoplasma genitalium [1]; [6]): >64 µg/mL

C[C@H]1c2cccc(O)c2C(=O)C2=C(O)[C@]3(O)C(=O)C(C(N)=O)=C(O)[C@@H](N(C)C)[C@@H]3[C@@H](O)[C@@H]21 [Doxycycline, reference compound]
MIC50 (Mycoplasma genitalium [1]; [4]): 0.5 µg/mL (≈ 1.13 µM)
MIC90 (Mycoplasma genitalium [1]; [5]): 1 µg/mL (≈ 2.25 µM)
MIC range (Mycoplasma genitalium [1]; [6]): 0.06 to 2 µg/mL

O=c1ccc2ncc(=O)n3c2n1C[C@H]3CN1CCC(NCc2cc3c(cn2)OCCC3)CC1 [Gepotidacin, (2R)-2-({4-[(3,4-dihydro-2/pyrano[2,3-c]pyridin-6-ylmethyl)amino]-1-piperidinyl}methyl)-1,2-dihydro-3H,8/2a,5,8a-triazaacenaphthylene-3,8-dione]
MIC90 (Mycoplasma genitalium [1]; [7]): 0.25 µg/mL (≈ 0.557 µM)
MIC range (Mycoplasma genitalium [1]; [7]): ≤0.016 to 0.5 µg/mL
MIC90 (Mycoplasma genitalium [1]; [8]): 0.25 µg/mL (≈ 0.557 µM)
MIC range (Mycoplasma genitalium [1]; [8]): 0.032 to 0.5 µg/mL
median MIC (Mycoplasma genitalium [1]; 44 isolates for which MBCs were available): 0.064 µg/mL
difference in MIC between fluoroquinolone-, dual-resistant and -susceptible isolates (Mycoplasma genitalium [1]; 54 isolates, p=0.2): no difference
difference in MIC between macrolide-resistant and -susceptible isolates (Mycoplasma genitalium [1]; 54 isolates, p=0.24): no difference
MIC90 (Mycoplasma genitalium [1]; Mycoplasmoides genitalium): 0.25 µg/mL (≈ 0.557 µM)
MIC50 (Mycoplasma genitalium [1]; Mycoplasmoides genitalium, 18 moxifloxacin-resistant isolates): 0.064 µg/mL (≈ 0.143 µM)
MIC50 (Mycoplasma genitalium [1]; Mycoplasmoides genitalium, 36 moxifloxacin-susceptible isolates): 0.125 µg/mL (≈ 0.279 µM)
MIC (Mycoplasma genitalium [1]; Mycoplasmoides genitalium, read-out: median MIC, 44 isolates for which MBCs were available): 0.064 µg/mL (≈ 0.143 µM)
MIC (Mycoplasma genitalium [1]; Mycoplasmoides genitalium, read-out: median MIC, all 54 isolates): 0.125 µg/mL (≈ 0.279 µM)
MIC (Mycoplasma genitalium [1]; Mycoplasmoides genitalium, read-out: modal MIC, all 54 isolates): 0.125 µg/mL (≈ 0.279 µM)
MIC50 (Mycoplasma genitalium [1]; Mycoplasmoides genitalium, all 54 isolates (36 moxifloxacin-susceptible and 18 moxifloxacin-resistant), Vero-cell culture, 99% inhibition of growth): 0.125 µg/mL (≈ 0.279 µM)
MIC range (Mycoplasma genitalium [1]; all 54 isolates): ≤0.016 to 0.5 µg/mL
MIC90 (Mycoplasma genitalium [1]; [6]): 0.25 µg/mL (≈ 0.557 µM)
MIC range (Mycoplasma genitalium [1]; [6]): ≤0.016 to 0.5 µg/mL
cross-resistance to the tested comparators (Mycoplasma genitalium [1]; all isolates incl. fluoroquinolone- and macrolide-resistant): no cross-resistance
MBC (Mycoplasma genitalium [2]): 0.125 µg/mL (≈ 0.279 µM)

COc1c(N2C[C@@H]3CCCN[C@@H]3C2)c(F)cc2c(=O)c(C(=O)O)cn(C3CC3)c12 [Moxifloxacin, reference compound]
MIC (Mycoplasma genitalium [1]; Mycoplasmoides genitalium): ≥ 1 µg/mL
MIC50 (Mycoplasma genitalium [1]; Mycoplasmoides genitalium): 0.25 µg/mL (≈ 0.623 µM)
MIC90 (Mycoplasma genitalium [1]; Mycoplasmoides genitalium): 4 µg/mL (≈ 9.96 µM)
MIC90 (Mycoplasma genitalium [1]; [6]): 4 µg/mL (≈ 9.96 µM)

pristinamycin
effective (Mycoplasma genitalium [3]): 80%
